Data taken from publication PMC6753678, “Fueling Open Innovation for Malaria Transmission-Blocking Drugs: Hundreds of Molecules Targeting Early Parasite Mosquito Stages” (Frontiers in Microbiology, 2019).
Where two headings read alike, the source gives them in different places.

Tests used:
HepG2 cells = assay: HepG2 cytotoxicity assay; conditions: for Pb ODA (this manuscript) HepG2 cytoxicity: HepG2 cytotoxicity listed with the Pb ODA data set (this manuscript); for IC50: read-out: HepG2 cytotoxicity assay IC50, dose response confirmation
Summary of the method: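 Here viability after a 48 h compound incubation (37°C, humidified 5% CO2) is measured by fluorescence and expressed as percent inhibition, with doxorubicin at 50 μM and DMSO as the bounding controls.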

[1] = tested on: 3D7-strain P. falciparum asexual parasites; assay: P. falciparum asexual growth inhibition assay (Pf GIA); type: cell-based, Plasmodium falciparum; conditions: dose response confirmation; read-out: Pf asexual growth inhibition assays IC50
Summary of the method: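 3D7 parasites at 0.25% parasitemia, 2% hematocrit were exposed to compounds in dose response for 72 h at 37°C under 5% CO2, 5% O2. Viability read as parasite LDH activity (nitro blue tetrazolium, A650) after freeze-thaw; inhibition scaled to chloroquine (50 μM) and DMSO controls, mean of three biological replicates.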

[2] = tested on: P. berghei ookinete development; conditions: for % inhibition, Replicate A / % inhibition, Replicate B: primary screen at 1 μM
[3] = read-out: Pb ODA (this manuscript) IC50, P. berghei ookinete development assay, this manuscript
[4] = read-out: Pb Ookinete development assay IC50, dose response confirmation
[5] = HepG2 values of the three screens unified
[6] = read-out: Pb ODA IC50, this manuscript
[7] = unified HepG2 value across the three screens

Row | Structure (SMILES) | Pb ODA (this manuscript) HepG2 cytoxicity (HepG2 cells) | IC50 (HepG2 cells) | IC50 [1] | Is compound selective in assay? Pb ODA active? [2] | % inhibition, Replicate A [2] | % inhibition, Replicate B [2] | IC50 [2, 3] | IC50 [2, 4] | HepG2 cytoxicity (Pb ODA, this manuscript) (HepG2 cells) | Unified cytotox (HepG2 cells; [5]) | Is compound selective in assay? Pb ODA active? ([2]; 1: YES, 0: NO) | IC50 [2, 6] | Unified cytotox (HepG2 cells; [7]) | % inhibition, Replicate A ([2]; 1 µM) | % inhibition, Replicate B ([2]; 1 µM)
1 | Cc1[nH]c(C)c(-c2ccc(C(=O)c3ccc(Cl)cc3)cc2)c(=O)c1Br [TCMDC-137407] | 44.67 µM | 44700 nM | 56 nM | 1 (key: 1: YES; 0: NO) | 83.43% | 91.19% | 80 nM | 78 nM |  |  |  |  |  |  | 
2 | Cc1[nH]c(C)c(-c2ccc(Oc3ccccc3)cc2)c(=O)c1Br [TCMDC-137410] |  | 34700 nM | 14 nM |  | 89.72% | 108.12% |  | 34 nM | 34.67 µM | 34.67 µM | 1 (1: YES) | 33.8 nM |  |  | 
3 | Cc1[nH]c(C)c(-c2ccc(C(=O)c3ccc(Cl)cc3)cc2)c(=O)c1Cl [TCMDC-137413] | 100.00 µM | 100000 nM | 117 nM | 1 (key: 1: YES; 0: NO) | 122.85% | 129.69% | 170 nM | 171 nM |  |  |  |  |  |  | 
4 | Cc1[nH]c(C)c(-c2ccc(S(=O)(=O)c3ccc(Cl)cc3)cc2)c(=O)c1Br [TCMDC-137414] | 100.00 µM | 100000 nM | 66 nM | 1 (key: 1: YES; 0: NO) | 109.11% | 112.52% | 110 nM | 112 nM |  |  |  |  |  |  | 
5 | Cc1cc(=O)c(-c2cccc(Oc3ccc(Cl)cc3)c2)c(C)[nH]1 [TCMDC-137415] |  | 35500 nM | 396 nM |  | 51.13% | 85.04% |  | 706 nM | 35.48 µM | 35.48 µM | 1 (1: YES) | 710 nM |  |  | 
6 | Cc1[nH]c(C)c(-c2ccc(-c3ccc(Cl)cc3)cc2)c(=O)c1Cl [TCMDC-137416] | 57.54 µM | 57500 nM | 378 nM | 1 (key: 1: YES; 0: NO) | 59.25% | 97.22% | 2430 nM | 2430 nM |  |  |  |  |  |  | 
7 | Cc1[nH]c(C)c(C2CCC(c3ccc(Cl)cc3)CC2)c(=O)c1Cl (stereo not shown) [TCMDC-137423] |  | 2240 nM | 44 nM |  | 93.67% | 102.07% |  | 75 nM |  |  | 1 (1: YES) | 75.5 nM | 2.24 µM |  | 
8 | Cc1nc(C)c(-c2ccc(Cl)cc2)c(O)c1I [TCMDC-137424] | 100.00 µM | 100000 nM | 239 nM | 1 (key: 1: YES; 0: NO) | 40.29% | 60.84% | 1840 nM | 1840 nM |  |  |  |  |  |  | 
9 | CCCCCCCc1c(C)[nH]c2ccccc2c1=O [TCMDC-137425] | 100.00 µM | 100000 nM | 222 nM | 1 (key: 1: YES; 0: NO) | 71.66% | 86.67% | 390 nM | 388 nM |  |  |  |  |  |  | 
10 | COc1ccc2c(=O)c(Br)c(C)[nH]c2c1 [TCMDC-137426] | 100.00 µM | 100000 nM | 842 nM | 1 (key: 1: YES; 0: NO) | 81.77% | 82.46% | 480 nM | 483 nM |  |  |  |  |  |  | 
11 | Cc1[nH]c2ccccc2c(=O)c1Br [TCMDC-137427] | 100.00 µM | 100000 nM | 3390 nM | 1 (key: 1: YES; 0: NO) | 55.99% | 67.98% |  | 1600 nM |  |  |  |  |  |  | 
12 | Cc1[nH]c(C)c(-c2ccc(C(F)(F)F)cc2)c(=O)c1Br [TCMDC-137429] | 100.00 µM | 100000 nM | 369 nM | 1 (key: 1: YES; 0: NO) | 133.13% | 107.96% | 650 nM | 648 nM |  |  |  |  |  |  | 
13 | CCCCCCCCc1c(C)[nH]c(C)c(C#N)c1=O [TCMDC-137431] |  | 34700 nM | 794 nM |  | 93.99% | 59.83% |  | 460 nM |  |  | 1 (1: YES) |  | 34.67 µM |  | 
14 | CCCCC1=CC2C(=O)C(C(=O)OC)=CN=C2C=C1OCc1ccccc1 (stereo not shown) [TCMDC-137492] |  | 100000 nM | 140 nM |  | 85.39% | 106.84% |  | 3020 nM |  |  | 1 (1: YES) | 3020 nM | 100.00 µM |  | 
15 | CCCCOc1cc2ncc(C(=O)OCC)c(O)c2cc1OCCCC [TCMDC-137523] |  | 100000 nM | 63 nM |  | 74.60% | 95.02% |  | 2190 nM |  |  | 1 (1: YES) | 2190 nM | 100.00 µM |  | 
16 | Cc1cc(O)c(-c2ccc(Oc3ccc(F)cc3)cc2)c(C)n1 [TCMDC-137535] |  | 280 nM | 1030 nM |  | 57.60% | 38.98% |  | 583 nM | 0.28 µM | 0.28 µM | 0 (0: NO) | 580 nM |  |  | 
17 | Cc1cc(=O)c(-c2ccc(Oc3cccc(C(F)(F)F)c3)cc2)c(C)[nH]1 [TCMDC-137536] | 100.00 µM | 100000 nM | 3230 nM | 1 (key: 1: YES; 0: NO) |  |  | 2650 nM | 2650 nM |  |  |  |  |  | 91.76% | 80.63%
18 | CCCCCCCCc1c(C)[nH]c(C)c(Cl)c1=O [TCMDC-137538] |  | 4790 nM | 102 nM |  | 94.00% | 90.22% |  | 131 nM |  |  | 1 (1: YES) | 130 nM | 4.79 µM |  | 
19 | CCN1CCN(CCNc2c3ccccc3nc3ccccc23)CC1.Cl [TCMDC-137545] |  | 11800 nM | 606 nM |  | 68.50% | 47.85% |  | 1780 nM | 11.75 µM | 11.75 µM | 0 (0: NO) | 1780 nM |  |  | 
20 | CCN1CCN(CCCNc2c3ccccc3nc3ccccc23)CC1.Cl [TCMDC-137546] |  | 9120 nM | 616 nM |  | 55.87% | 53.70% |  | 3040 nM | 9.12 µM | 9.12 µM | 0 (0: NO) | 3050 nM |  |  | 
